Measurements reported in patent US20200392107A1, “CYCLIC AMINE DERIVATIVE AND MEDICAL USE THEREOF” (Toray Industries, Inc., priority 2018, published 2020).

Assays:
[1] = system: IL-17 production in mouse splenocytes; assay: Suppressive effect on IL-17 production by IL-23 stimulation in mouse splenocytes; assay type: cell-based; conditions: Splenocyte, 72 h, at 5 μmol/L of the test compound, human IL-23 10 ng/mL, cultured 3 days, read-out: IL-17 production inhibition rate (%)
Experimental: Using mouse splenocytes, the suppressive effect of the cyclic amine derivative (I) or a pharmacologically acceptable salt thereof on IL-17 production by IL-23 stimulation was evaluated by a partially modified method mentioned in The Journal of Biological Chemistry, 2003, Vol. 278, No. 3, p. 1910-1914.
A single cell suspension was prepared from the spleen of C57BL/6J mice (male or female, 6 to 30 weeks old) (Charles River Laboratories Japan, Inc. or CLEA Japan, Inc.) and splenocytes were prepared using Histopaque-1083 (Sigma-Aldrich Japan). The culture medium was used by adding 10% FBS (Gibco), 50 U/mL of penicillin-50 μg/mL of streptomycin (Gibco), 50 μmol/L of 2-mercaptoethanol (Gibco), and 100 U/mL of human IL-2 (Cell Science & Technology Institute, Inc.) to RPMI1640 medium (Gibco). A test compound was dissolved in DMSO and then diluted with the culture medium to have a final concentration of DMSO of 0.1% before use. Splenocytes (3×10^5 cells/well) prepared in the culture medium were seeded in wells of a 96-well flat-bottom plate (Corning Incorporated), the test compound and 10 ng/mL of human IL-23 (R & D systems, Inc.) were added thereto, and the cells were cultured at 37° C. under 5% CO2 for 3 days. A well without addition of human IL-23 and without addition of the test compound and a well with addition of human IL-23 and without addition of the test compound were prepared. After completion of the culture, the culture supernatant was collected and the IL-17 production amount in the supernatant was determined by ELISA method (R & D systems, Inc.).
The IL-17 production inhibition rate (%) was calculated from Formula (2).
IL-17 production inhibition rate (%)=(1−((IL-17 production amount with addition of IL-23 and with addition of the test compound)−(IL-17 production amount without addition of IL-23 and without addition of the test compound))/((IL-17 production amount with addition of IL-23 and without addition of the test compound)−(IL-17 production amount without addition of IL-23 and without addition of the test compound)))×100 (2).

[2] = biological target: T1, RORγ-LBD (GST-fused ligand-binding domain of RORγ) / coactivator TRAP220/DRIP-2 (Homo sapiens, UniProt P51449); assay: Inhibitory effect on RORγ-coactivator binding (LanthaScreen TR-FRET RORγ Coactivator Assay); assay type: biochemical; conditions: at 33 μmol/L of the test compound; read-out: RORγ-coactivator binding inhibition rate (%)
T1 construct: purchased Invitrogen
T1 sequence (P51449 269-508 limits assumed): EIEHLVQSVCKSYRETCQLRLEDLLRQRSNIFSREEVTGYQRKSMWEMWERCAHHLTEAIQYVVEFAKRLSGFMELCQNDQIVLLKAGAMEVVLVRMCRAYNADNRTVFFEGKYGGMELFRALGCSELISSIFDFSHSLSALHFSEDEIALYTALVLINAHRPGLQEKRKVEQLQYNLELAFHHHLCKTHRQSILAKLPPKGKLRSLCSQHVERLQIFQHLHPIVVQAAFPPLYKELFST
Experimental: The inhibitory effect of the cyclic amine derivative (I) or a pharmacologically acceptable salt thereof on the binding between a ligand-binding domain of RORγ (hereinafter referred to as RORγ-LBD) and a coactivator was evaluated using Invitrogen's LanthaScreen™ TR-FRET Retinoid-Related Orphan Receptor (ROR) gamma Coactivator Assay kit utilizing time-resolved fluorescence energy transfer (TR-FRET).
A test compound was dissolved in DMSO and diluted with TR-FRET Coregulator Buffer D (Invitrogen) containing 5 mmol/L of DTT to have a final DMSO concentration of 1% before use. To each well of a 384-well black plate (Corning Inc.), 4 nmol/L of GST-fused RORγ-LBD (Invitrogen) diluted with the buffer mentioned above and the test compound were added. A well without addition of the test compound and without addition of GST-fused RORγ-LBD (background) and a well without addition of the test compound and with addition of GST-fused RORγ-LBD (control) were prepared. Next, 150 nmol/L of fluorescein-labeled TRAP220/DRIP-2 (Invitrogen) diluted with the buffer mentioned above and 32 nmol/L of terbium-labeled anti-GST antibody (Invitrogen) were added to each well. After incubating the plate at room temperature for 16 to 24 hours, the fluorescence at 495 nm and 520 nm when excited at 320 nm was measured for each well and the ratio (fluorescence value at 520 nm/fluorescence value at 495 nm) was calculated.
The fold change with addition of the test compound (ratio with addition of the test compound/ratio of the background), the fold change of the control (ratio of the control/ratio of the background), and the fold change of the background (ratio of the background/ratio of the background) were calculated, and then the inhibition rate of binding between RORγ-LBD and a coactivator (hereinafter referred to as RORγ-coactivator binding inhibition rate) (%) was calculated from Formula (1):
RORγ-coactivator binding inhibition rate (%)=(1−((Fold change with addition of the test compound)−(Fold change of the background))/((Fold change of the control)−(Fold change of the background)))×100 (1).

Row | inhibition at 33 µM [2] | Compound | inhibition at 5 µM [1]
1 | 87.9% | CC(=O)N1CCCC[C@@H]1C(=O)Nc1cc(Cl)c2c(c1)CCN2Cc1cccc(C(F)(F)F)c1 [Example 5, (R)-1-acetyl-N-(7-chloro-1-(3-(trifluoromethyl)benzyl)indolin-5-yl)piperidine-2-carboxamide] | 87.5%
2 | 99.4% | CC(=O)N1CCCC[C@@H]1C(=O)Nc1cc(Cl)c2c(c1)CCN2Cc1ccc(OC(F)(F)F)cc1 [Example 8, (R)-1-acetyl-N-(7-chloro-1-(4-(trifluoromethoxy)benzyl)in-dolin-5-yl)piperidine-2-carboxamide] | 100%
3 | 99.5% | CC(=O)N1CCCC[C@@H]1C(=O)Nc1cc(Cl)c2c(c1)CCN(Cc1ccc(C(F)(F)F)cc1)C2 [Example 3, (R)-1-acetyl-N-(8-chloro-2-(4-(trifluoromethyl)benzyl)-1,2,3,4-tetrahydroisoquinolin-6-yl)piperidine-2-carboxamide] | 99.7%
4 | 96% | CC(=O)N1CCCC[C@@H]1C(=O)Nc1cc(Cl)c2c(c1)CCN2CCc1ccc(C(F)(F)F)cc1 [Example 7, (R)-1-acetyl-N-(7-chloro-1-(4-(trifluoromethyl)phenethyl)indolin-5-yl)piperidine-2-carboxamide] | 98.6%
5 | 94.3% | CC(=O)N1CCCC[C@@H]1C(=O)Nc1ccc2c(c1)CCCN2Cc1ccc(C(F)(F)F)cc1 [Example 2, (R)-1-acetyl-N-(1-(4-(trifluoromethyl)benzyl)-1,2,3,4-tetrahy-droquinolin-6-yl)piperidine-2-carboxamide] | 98.4%
6 | 99.8% | CC(=O)N1CCCCC1C(=O)Nc1cc(Cl)c2c(c1)CCN2Cc1ccc(C(F)(F)F)cc1 (centres unmarked) [Example 10, 1-acetyl-N-(7-chloro-1-(4-(trifluoromethyl)benzyl)indolin-5-yl)piperidine-2-carboxamide] | 99.5%
7 | 85.2% | CC(=O)N1CCCC[C@@H]1C(=O)Nc1cc(Cl)c2c(c1)CCN2Cc1ccccc1C(F)(F)F [Example 6, (R)-1-acetyl-N-(7-chloro-1-(2-(trifluoromethyl)benzyl)indolin-5-yl)piperidine-2-carboxamide] | 91.6%
